From US20230365533A1, “BICYCLOHEPTANE PYRROLIDINE OREXIN RECEPTOR AGONISTS” (MERCK SHARP & DOHME CORP., priority 2021, published 2023)

target: T1, human OX2R (Homo sapiens, UniProt O43614); experiment: IPOne (IP-1) orexin receptor agonist assay in CHO cells expressing human OX2R; assay type: cell-based; settings: IPOne assay, CHO cells expressing human OX2R, 2 hours incubation; read-out: hoX2R_IP IC50
T1 construct: expressed in transfected cells; host or cells: CHO (Chinese hamster ovary) cells, grown under G418 selection
T1 sequence (O43614 1-444): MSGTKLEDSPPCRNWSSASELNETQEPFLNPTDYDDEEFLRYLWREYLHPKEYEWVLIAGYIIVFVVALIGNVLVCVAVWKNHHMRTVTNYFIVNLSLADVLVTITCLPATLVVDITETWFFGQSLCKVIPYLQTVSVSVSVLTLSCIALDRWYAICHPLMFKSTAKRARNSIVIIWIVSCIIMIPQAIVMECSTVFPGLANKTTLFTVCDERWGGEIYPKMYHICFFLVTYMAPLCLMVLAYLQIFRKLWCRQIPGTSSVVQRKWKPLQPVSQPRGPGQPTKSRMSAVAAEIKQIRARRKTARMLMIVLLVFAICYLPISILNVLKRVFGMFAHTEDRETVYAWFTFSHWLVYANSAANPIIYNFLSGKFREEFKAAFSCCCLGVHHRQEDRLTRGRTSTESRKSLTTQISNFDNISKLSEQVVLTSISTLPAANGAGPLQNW
Summary of the method: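 CHO cells with human OX2R treated 2 h at 37 °C with 10-point ½-log compound dilutions in stimulation buffer; IP-1 accumulation read by HTRF (665/620 nm) after 60 min detection. EC50 from four-parameter fit; % effect versus a 1 uM reference agonist.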

IC50 | Structure (SMILES)
0.77 nM | CC(OC(=O)N1[C@H](C)C[C@H](NS(C)(=O)=O)[C@@H]1CO[C@H]1CC[C@@]2(c3ncc(F)cn3)C[C@H]2C1)C(F)F (stereo partly drawn) [Example 63, 1,1-Difluoropropan-2-yl (2R,3S,5R)-2-((((1S,3S,6R)-6-(5-fluoropyrimidin-2-yl)bicyclo[4.1.0]heptan-3-yl)oxy)methyl)-5-methyl-3-(methylsulfonamido)pyrrolidine-1-carboxylate]
9.2 nM | C[C@@H]1C[C@H](NS(C)(=O)=O)[C@H](CO[C@H]2CC[C@@]3(c4ncc(F)cn4)C[C@H]3C2)N1C(=O)O[C@H]1COC[C@@H]1F [Example 56, (3S,4S)-4-fluorotetrahydrofuran-3-yl (2R,3S,5R)-2-((((1S,3S,6R)-6-(5-fluoropyrimidin-2-yl)bicyclo[4.1.0]heptan-3-yl)oxy)methyl)-5-methyl-3-(methylsulfonamido)pyrrolidine-1-carboxylate]
7.4 nM | CC(C)OC(=O)N1[C@H](C)C[C@H](NS(=O)(=O)CF)[C@@H]1COC1CCC2(c3ncc(Br)cn3)CC2C1 (stereo partly drawn) [Example 108, isopropyl (2R,3S,5R)-2-(((6-(5-bromopyrimidin-2-yl)bicyclo[4.1.0]heptan-3-yl)oxy)methyl)-3-((fluoromethyl)sulfonamido)-5-methylpyrrolidine-1-carboxylate]
3.3 nM | CCS(=O)(=O)N[C@H]1CCCN(C(=O)OC(C)C)[C@H]1COC1CC[C@@]2(c3ncc(F)cn3)CC2C1 (stereo partly drawn) [Example 126, isopropyl (2R,3S)-3-(ethylsulfonamido)-2-(((6-(5-fluoropyrimidin-2-yl)bicyclo[4.1.0]heptan-3-yl)oxy)methyl)piperidine-1-carboxylate]
28.8 nM | COC(=O)N1[C@H](C)C[C@H](NS(=O)(=O)N(C)C)[C@@H]1COC1CCC2(c3ccccn3)CC2C1 (stereo partly drawn) [Example 9, methyl (2R,3S,5R)-3-((N,N-dimethylsulfamoyl)amino)-5-methyl-2-(((6-(pyridin-2-yl)bicyclo[4.1.0]heptan-3-yl)oxy)methyl)pyrrolidine-1-carboxylate]
79.4 nM | COC(=O)N1[C@H](C)C[C@H](NS(C)(=O)=O)[C@@H]1COC1CCC2(c3ncc(C)cn3)CC2C1 (stereo partly drawn) [Example 159, methyl (2R,3S,5R)-5-methyl-2-(((6-(5-methylpyrimidin-2-yl)bicyclo[4.1.0]heptan-3-yl)oxy)methyl)-3-(methylsulfonamido)pyrrolidine-1-carboxylate]
51.2 nM | COC(=O)N1[C@H](C)C[C@H](NS(C)(=O)=O)[C@@H]1COC1CCC2(c3ncc(F)c(OC)n3)CC2C1 (stereo partly drawn) [Example 76, methyl (2R,3S,5R)-2-(((6-(5-fluoro-4-methoxypyrimidin-2-yl)bicyclo[4.1.0]heptan-3-yl)oxy)methyl)-5-methyl-3-(methylsulfonamido)pyrrolidine-1-carboxylate]
9.9 nM | COC(=O)N1[C@H](C)C[C@H](NS(=O)(=O)CF)[C@@H]1COC1CCC2(c3ncc(Cl)c(OC)n3)CC2C1 (stereo partly drawn) [Example 86, methyl (2R,3S,5R)-2-(((6-(5-chloro-4-methoxypyrimidin-2-yl)bicyclo[4.1.0]heptan-3-yl)oxy)methyl)-3-((fluoromethyl)sulfonamido)-5-methylpyrrolidine-1-carboxylate]
187 nM | COC(=O)N1[C@H](C)C[C@H](NS(C)(=O)=O)[C@@H]1COC1CCC2(c3ncc(Cl)c(C(F)(F)F)n3)CC2C1 (stereo partly drawn) [Example 72, methyl (2R,3S,5R)-2-(((6-(5-chloro-4-(trifluoromethyl)pyrimidin-2-yl)bicyclo[4.1.0]heptan-3-yl)oxy)methyl)-5-methyl-3-(methylsulfonamido)pyrrolidine-1-carboxylate]
25.2 nM | COC(=O)N1[C@H](C)C[C@H](NS(=O)(=O)CF)[C@@H]1COC1CCC2(c3ncc(F)c(OC)n3)CC2C1 (stereo partly drawn) [Example 85, methyl (2R,3S,5R)-2-(((6-(5-fluoro-4-methoxypyrimidin-2-yl)bicyclo[4.1.0]heptan-3-yl)oxy)methyl)-3-((fluoromethyl)sulfonamido)-5-methylpyrrolidine-1-carboxylate]
6.1 nM | C[C@@H]1C[C@H](NS(C)(=O)=O)[C@H](CO[C@H]2CC[C@@]3(c4ncc(F)cn4)C[C@H]3C2)N1C(=O)OCC1(F)CCC1 [Example 53, (1-fluorocyclobutyl)methyl (2R,3S,5R)-2-((((1S,3S,6R)-6-(5-fluoropyrimidin-2-yl)bicyclo[4.1.0]heptan-3-yl)oxy)methyl)-5-methyl-3-(methylsulfonamido)pyrrolidine-1-carboxylate]
1 nM | COC(=O)N1[C@H](C)C[C@H](NS(=O)(=O)CF)[C@@H]1COC1CCC2(c3ncc(Br)cn3)CC2C1 (stereo partly drawn) [Example 89, methyl (2R,3S,5R)-2-(((6-(5-bromopyrimidin-2-yl)bicyclo[4.1.0]heptan-3-yl)oxy)methyl)-3-((fluoromethyl)sulfonamido)-5-methylpyrrolidine-1-carboxylate]
257 nM | COC(=O)N1[C@H](C)C[C@H](NS(C)(=O)=O)[C@@H]1COC1CCC2(c3ncc(OC(F)F)c(C)n3)CC2C1 (stereo partly drawn) [Example 75, methyl (2R,3S,5R)-2-(((6-(5-(difluoromethoxy)-4-methylpyrimidin-2-yl)bicyclo[4.1.0]heptan-3-yl)oxy)methyl)-5-methyl-3-(methylsulfonamido)pyrrolidine-1-carboxylate]
86.4 nM | COC(=O)N1[C@H](C)C[C@H](NS(C)(=O)=O)[C@@H]1CO[C@@H]1CC[C@]2(c3ncc(Cl)cn3)C[C@@H]2C1 (single isomer, unassigned) [Example 141]
13.8 nM | CCS(=O)(=O)N[C@H]1C[C@@H](C)N(C(=O)OC)[C@H]1CO[C@@H]1CC[C@]2(c3ncc(F)cn3)C[C@@H]2C1 [Example 47, methyl (2R,3S,5R)-3-(ethylsulfonamido)-2-((((1R,3R,6S)-6-(5-fluoropyrimidin-2-yl)bicyclo[4.1.0]heptan-3-yl)oxy)methyl)-5-methylpyrrolidine-1-carboxylate]
0.9 nM | CCS(=O)(=O)N[C@H]1[C@H]2CCC[C@H]2N(C(=O)OC)[C@H]1COC1CCC2(c3ncc(F)cn3)CC2C1 (stereo partly drawn) [Example 129, methyl (2R,3S,3aS,6aR)-3-(ethylsulfonamido)-2-(((6-(5-fluoropyrimidin-2-yl)bicyclo[4.1.0]heptan-3-yl)oxy)methyl)hexahydrocyclopenta[b]pyrrole-1(2H)-carboxylate]
16.9 nM | CC(C)OC(=O)N1[C@H](C)C[C@H](NS(C)(=O)=O)[C@@H]1COC1CCC2(c3ncc(Cl)cn3)CC2C1 (stereo partly drawn) [Example 154, isopropyl (2R,3S,5R)-2-(((6-(5-chloropyrimidin-2-yl)bicyclo[4.1.0]heptan-3-yl)oxy)methyl)-5-methyl-3-(methylsulfonamido)pyrrolidine-1-carboxylate]
3 nM | COC(=O)N1[C@H](C)C[C@H](NS(=O)(=O)C2CC2)[C@@H]1CO[C@H]1CC[C@@]2(c3ncc(F)cn3)C[C@H]2C1 [Example 42, methyl (2R,3S,5R)-3-(cyclopropanesulfonamido)-2-((((1S,3S,6R)-6-(5-fluoropyrimidin-2-yl)bicyclo[4.1.0]heptan-3-yl)oxy)methyl)-5-methylpyrrolidine-1-carboxylate]
1 nM | CC(C)OC(=O)N1[C@H](C)C[C@H](NS(=O)(=O)CF)[C@@H]1COC1CCC2(c3ncc(F)cn3)CC2C1 (stereo partly drawn) [Example 111, isopropyl (2R,3S,5R)-3-((fluoromethyl)sulfonamido)-2-(((6-(5-fluoropyrimidin-2-yl)bicyclo[4.1.0]heptan-3-yl)oxy)methyl)-5-methylpyrrolidine-1-carboxylate]
1.6 nM | C[C@@H]1C[C@H](NS(C)(=O)=O)[C@H](CO[C@H]2CC[C@@]3(c4ncc(F)cn4)C[C@H]3C2)N1C(=O)OCC(F)(F)F [Example 65, 2,2,2-trifluoroethyl (2R,3S,5R)-2-((((1S,3S,6R)-6-(5-fluoropyrimidin-2-yl)bicyclo[4.1.0]heptan-3-yl)oxy)methyl)-5-methyl-3-(methylsulfonamido)pyrrolidine-1-carboxylate]
461 nM | COC(=O)N1[C@H](C)C[C@H](NS(=O)(=O)N(C)C)[C@@H]1COC1CCC2(c3cnccn3)CC2C1 (stereo partly drawn) [Example 13, methyl (2R,3S,5R)-3-((N,N-dimethylsulfamoyl)amino)-5-methyl-2-(((6-(pyrazin-2-yl)bicyclo[4.1.0]heptan-3-yl)oxy)methyl)pyrrolidine-1-carboxylate]
